This assay concerns the target T1, vanilloid receptor 1 (VR1/TRPV1 receptor) (Homo sapiens, UniProt Q8NER1).
T1 construct: expressed in transfected cells; host or cells: CHO K1 cells (ECACC), stably transfected
Nature of the assay: VR1/TRPV1 receptor affinity, capsaicin stimulus (human). In kind it is cell-based, human being. The arrangement: key to (f) Ki (human being) [nM] Cap: result in words: AG=agonist; pAG=partial agonist; NE=no effect. To be noted: for Ki: Tables 8-12, read-out: (f) Ki (human being) [nM] Cap; for inhibition at 5 µM: Tables 8-12, read-out: (f) Ki (human being) [nM] Cap: inhibition (as a percentage).

In general, Ki refers to a dissociation constant, usually derived from enzyme kinetics or from competition with a known ligand. A word on the inhibition: it is the change of the read-out against control, counted positive when it falls.

T1 sequence (Q8NER1 whole entry): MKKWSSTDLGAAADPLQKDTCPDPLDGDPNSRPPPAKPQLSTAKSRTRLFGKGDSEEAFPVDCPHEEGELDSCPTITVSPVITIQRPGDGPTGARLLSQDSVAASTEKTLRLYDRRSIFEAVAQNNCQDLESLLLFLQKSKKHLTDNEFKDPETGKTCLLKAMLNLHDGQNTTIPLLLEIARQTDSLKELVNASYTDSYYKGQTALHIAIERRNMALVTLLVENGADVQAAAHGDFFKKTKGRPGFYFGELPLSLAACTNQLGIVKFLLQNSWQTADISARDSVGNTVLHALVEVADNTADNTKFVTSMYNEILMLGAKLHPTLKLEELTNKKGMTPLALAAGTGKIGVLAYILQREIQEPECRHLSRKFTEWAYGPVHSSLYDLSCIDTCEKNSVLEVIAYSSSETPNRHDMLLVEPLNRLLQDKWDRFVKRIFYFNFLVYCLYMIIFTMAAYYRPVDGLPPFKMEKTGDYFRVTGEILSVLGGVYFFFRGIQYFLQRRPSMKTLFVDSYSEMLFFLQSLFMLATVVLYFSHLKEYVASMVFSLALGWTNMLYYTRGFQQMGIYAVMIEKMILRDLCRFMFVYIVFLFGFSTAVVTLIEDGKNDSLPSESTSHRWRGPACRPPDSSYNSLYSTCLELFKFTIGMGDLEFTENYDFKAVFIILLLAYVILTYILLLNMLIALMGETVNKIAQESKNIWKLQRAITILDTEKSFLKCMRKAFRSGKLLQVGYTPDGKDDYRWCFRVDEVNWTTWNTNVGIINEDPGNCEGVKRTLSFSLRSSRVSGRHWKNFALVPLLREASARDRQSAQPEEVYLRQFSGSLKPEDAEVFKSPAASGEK

As for `CS(=O)(=O)NCc1c(F)cc(NC(=O)NCc2cc(C(F)(F)F)nn2-c2cccc(Cl)c2)cc1F` [Example B27, 1-[[2-(3-Chlorophenyl)-5-(trifluoromethyl)-2H-pyrazol-3-yl]-methyl]-3-[3,5-difluoro-4-(methanesulfonamido-methyl)-phenyl]-urea], the Ki amounted to 8 nM.
Turning to `NS(=O)(=O)NCc1ccc(NC(=O)NCc2cc(C3CC3)nn2-c2cccc(Cl)c2)cc1F` [Example B61, 1-[[2-(3-Chlorophenyl)-5-cyclopropyl-2H-pyrazol-3-yl]-methyl]-3-[3-fluoro-4-[(sulfamoylamino)-methyl]-phenyl]-urea], the Ki amounted to 8 nM.
Same read-out and setting: the same measure for “N-(3-Chlorophenyl)-4-[1-[[2-(3-chlorophenyl)-5-(trifluoromethyl)-2H-pyrazol-3-yl]-methyl-carbamoyl]-ethyl]-benzamide [Example E32]”: 48 nM.
Turning to `COc1ccc(NC(=O)NCc2cc(C(F)(F)F)nn2-c2cccc(Cl)c2)cc1O` [Example A16, 1-[[2-(3-Chlorophenyl)-5-(trifluoromethyl)-2H-pyrazol-3-yl]-methyl]-3-(3-hydroxy-4-methoxy-phenyl)-urea], the “(f) Ki (human being) [nM] Cap: result in words” value (“(f) Ki (human being) … in words” for short) (Tables 8-12) is “AG”.
Turning to `COc1cc(NC(=O)NCc2cc(C(C)(C)C)nn2-c2cccc(Cl)c2)ccc1CNS(C)(=O)=O` [Example B11, 1-[[5-tert-Butyl-2-(3-chlorophenyl)-2H-pyrazol-3-yl]-methyl]-3-[4-(methanesulfonamido-methyl)-3-methoxy-phenyl]-urea], the Ki is 9 nM.
Regarding `O=Cc1ccc(NC(=O)NCc2cc(C(F)(F)F)nn2-c2cccc(Cl)c2)cc1F` [Example E61, 1-((1-(3-chlorophenyl)-3-(trifluoromethyl)-1H-pyrazol-5-yl)methyl)-3-(3-fluoro-4-formylphenyl)urea], the inhibition constant Ki worked out at 23 nM.
As for “4-[[[5-tert-Butyl-2-(3-chlorophenyl)-2H-pyrazol-3-yl]-methyl-carbamoyl]amino]-2-chloro-benzoic acid methyl ester [Example E60]”, the inhibitory constant (Ki) amounted to 19 nM.
Regarding `CC(C)(C)c1cc(CNC(=O)Nc2ccc(C(=O)N3CCOCC3)c(F)c2)n(-c2cccc(Cl)c2)n1` [Example E14, 1-[[5-tert-Butyl-2-(3-chlorophenyl)-2H-pyrazol-3-yl]-methyl]-3-[3-fluoro-4-(morpholine-4-carbonyl)-phenyl]-urea], the inhibition at 5 µM (@ 5 μM) amounted to 38%.
Take “4-[[[2-(3-Chlorophenyl)-5-(trifluoromethyl)-2H-pyrazol-3-yl]-methyl-carbamoyl]-methyl]-N-(4-fluorophenyl)-benzamide [Example E36]”: the Ki was 14 nM.
Regarding “4-[[[5-tert-Butyl-2-(3-chlorophenyl)-2H-pyrazol-3-yl]-methyl-carbamoyl]-methyl]-2-fluoro-N-(4-fluorophenyl)-benzamide [Example E39]”, the Ki was 2 nM.
Consider `CC(C(=O)NCc1cc(C(F)(F)F)nn1-c1ccc(F)c(F)c1)c1ccc(N2CCCS2(=O)=O)c(F)c1` (stereo not drawn) [Example C3, N-[[2-(3,4-Difluoro-phenyl)-5-(trifluoromethyl)-2H-pyrazol-3-yl]-methyl]-2-[4-(1,1-dioxo-[1,2]thiazolidin-2-yl)-3-fluoro-phenyl]-propionamide], for which the inhibition at 5 µM (@ 5 μM) is 54%.
The same measure, in the same setting: the same measure for `CC(C(=O)NCc1cc(C(F)(F)F)nn1-c1cccc(F)c1)c1ccc(S(C)(=O)=O)c(F)c1` (stereo not drawn) [Example D3, 2-(3-Fluoro-4-methylsulfonyl-phenyl)-N-[[2-(3-fluorophenyl)-5-(trifluoromethyl)-2H-pyrazol-3-yl]-methyl]-propionamide]: 55%.
Turning to `COc1c(F)cc(C(C)C(=O)NCc2cc(C(C)(C)C)nn2-c2ccc(F)c(Cl)c2)cc1F` (stereo not drawn) [Example A5, N-[[5-tert-Butyl-2-(3-chloro-4-fluoro-phenyl)-2H-pyrazol-3-yl]-methyl]-2-(3,5-difluoro-4-methoxy-phenyl)-propionamide], where the note is “Tables 8-12”, the “(f) Ki (human being) … in words” value is “AG”.
Regarding `CC(C(=O)NCc1cc(C(F)(F)F)nn1-c1ccc(F)c(Cl)c1)c1ccc(S(C)(=O)=O)c(F)c1` (stereo not drawn) [Example D4, N-[[2-(3-Chloro-4-fluoro-phenyl)-5-(trifluoromethyl)-2H-pyrazol-3-yl]-methyl]-2-(3-fluoro-4-methylsulfonyl-phenyl)-propionamide], the Ki was 41 nM.
For the compound `Cc1cccc(-n2nc(C(F)(F)F)cc2CNC(=O)Nc2ccc(CNS(C)(=O)=O)cc2)c1` [Example B89, 1-[4-(Methanesulfonamido-methyl)-phenyl]-3-[[2-(m-tolyl)-5-(trifluoromethyl)-2H-pyrazol-3-yl]-methyl]-urea], the Ki was 24 nM.
On to `O=C(NCc1cc(C(F)(F)F)nn1-c1cccc(Cl)c1)Nc1ccc(C(=O)NCCO)c(F)c1` [Example E18], for which the Ki amounted to 37 nM.
On to `CC(C)(C)c1cc(CNC(=O)Cc2ccc(CNS(C)(=O)=O)c(F)c2)n(-c2cccc(Cl)c2)n1` [Example B26, N-[[5-tert-Butyl-2-(3-chlorophenyl)-2H-pyrazol-3-yl]-methyl]-2-[3-fluoro-4-(methanesulfonamido-methyl)-phenyl]-acetamide], for which the Ki is 12 nM.
In the case of “4-[[[5-tert-Butyl-2-(3-chlorophenyl)-2H-pyrazol-3-yl]-methyl-carbamoyl]amino]-2-chloro-benzoic acid [Example E55]”, the “(f) Ki (human being) [nM] Cap: inhibition (as a percentage)” value (@ 5 μM, Tables 8-12) is on record as 28% @ 5 μM.
Consider `CC(=O)NCc1ccc(C(C)C(=O)NCc2cc(C(C)(C)C)nn2-c2cccc(Cl)c2)cc1F` (stereo not drawn) [Example B67, 2-[4-(Acetylamino-methyl)-3-fluoro-phenyl]-N-[[5-tert-butyl-2-(3-chlorophenyl)-2H-pyrazol-3-yl]-methyl]-propionamide], for which, for the setting “Tables 8-12”, the “(f) Ki (human being) … in words” value is listed as “AG”.
Turning to `CC(C(=O)NCc1cc(C(F)(F)F)nn1-c1cccc(Cl)c1)c1ccc(CS(C)(=O)=O)c(F)c1` (stereo not drawn) [Example D6, N-[[2-(3-Chlorophenyl)-5-(trifluoromethyl)-2H-pyrazol-3-yl]-methyl]-2-[3-fluoro-4-(methylsulfonyl-methyl)-phenyl]-propionamide], the Ki is 38 nM.
The same measure, in the same setting: then “4-[1-[[5-tert-Butyl-2-(3-chlorophenyl)-2H-pyrazol-3-yl]-methyl-carbamoyl]-ethyl]-N-(4-chlorophenyl)-2-fluoro-benzamide [Example E35]”, with 2 nM.
Turning to `CC(C(=O)NCc1cc(C(C)(C)C)nn1-c1cccc(F)c1)c1ccc(CS(C)(=O)=O)c(F)c1` (stereo not drawn) [Example D9, N-[[5-tert-Butyl-2-(3-fluorophenyl)-2H-pyrazol-3-yl]-methyl]-2-[3-fluoro-4-(methylsulfonyl-methyl)-phenyl]-propionamide], the Ki is 30 nM.
In the case of “N-[[4-[[[5-tert-Butyl-2-(3-chlorophenyl)-2H-pyrazol-3-yl]-methyl-carbamoyl]amino]-2-fluoro-phenyl]-methyl]-acetamide [Example B34]”, the Ki is 15 nM.
In the case of `CC(C)(C)c1cc(CNC(=O)Nc2ccc(OCC(O)CO)c(F)c2)n(-c2cccc(Cl)c2)n1` (stereo not drawn) [Example A24, 1-[[5-tert-Butyl-2-(3-chlorophenyl)-2H-pyrazol-3-yl]-methyl]-3-[4-(2,3-dihydroxy-propoxy)-3-fluoro-phenyl]-urea], the “(f) Ki (human being) … in words” value (Tables 8-12) was “AG”.

These data come from US9624209B2, “Substituted phenylureas and phenylamides as vanilloid receptor ligands” (Gruenenthal GmbH, priority 2009, dated 2017).
